Data on 23 compounds can be found in ChEMBL document CHEMBL1944626, “Design, synthesis and biological evaluation of N-phenylsulfonylnicotinamide derivatives as novel antitumor inhibitors” (Bioorg Med Chem, 2012).

Calls of active or inactive are those of the source. The rule behind the calls is not given here.

Assay [1] has as its target T1, Epidermal growth factor receptor (Homo sapiens, UniProt P00533). In words: Inhibition of autophosphorylation of recombinant His-tagged EGFR expressed in baculovirus infected Sf9 cells after 1 hr by DELFIA/time-resolved fluorimetry assay.
In assay [2] the test system is MCF7. In words: Antiproliferative activity against human MCF7 cells after 48 hrs by MTT assay. The assay is classed as functional, cell-based. The settings on record: MCF7, 48 h.
In assay [3] the target is T1, Epidermal growth factor receptor. In words: Inhibition of EGF-stimulated EGFR autophosphorylation in human MCF7 cells at >1.5 uM treated 1 hr before EGF challenge measured after 15 mins by Western immunoblot analysis. It counts as cell-based.

T1 sequence (P00533 whole entry): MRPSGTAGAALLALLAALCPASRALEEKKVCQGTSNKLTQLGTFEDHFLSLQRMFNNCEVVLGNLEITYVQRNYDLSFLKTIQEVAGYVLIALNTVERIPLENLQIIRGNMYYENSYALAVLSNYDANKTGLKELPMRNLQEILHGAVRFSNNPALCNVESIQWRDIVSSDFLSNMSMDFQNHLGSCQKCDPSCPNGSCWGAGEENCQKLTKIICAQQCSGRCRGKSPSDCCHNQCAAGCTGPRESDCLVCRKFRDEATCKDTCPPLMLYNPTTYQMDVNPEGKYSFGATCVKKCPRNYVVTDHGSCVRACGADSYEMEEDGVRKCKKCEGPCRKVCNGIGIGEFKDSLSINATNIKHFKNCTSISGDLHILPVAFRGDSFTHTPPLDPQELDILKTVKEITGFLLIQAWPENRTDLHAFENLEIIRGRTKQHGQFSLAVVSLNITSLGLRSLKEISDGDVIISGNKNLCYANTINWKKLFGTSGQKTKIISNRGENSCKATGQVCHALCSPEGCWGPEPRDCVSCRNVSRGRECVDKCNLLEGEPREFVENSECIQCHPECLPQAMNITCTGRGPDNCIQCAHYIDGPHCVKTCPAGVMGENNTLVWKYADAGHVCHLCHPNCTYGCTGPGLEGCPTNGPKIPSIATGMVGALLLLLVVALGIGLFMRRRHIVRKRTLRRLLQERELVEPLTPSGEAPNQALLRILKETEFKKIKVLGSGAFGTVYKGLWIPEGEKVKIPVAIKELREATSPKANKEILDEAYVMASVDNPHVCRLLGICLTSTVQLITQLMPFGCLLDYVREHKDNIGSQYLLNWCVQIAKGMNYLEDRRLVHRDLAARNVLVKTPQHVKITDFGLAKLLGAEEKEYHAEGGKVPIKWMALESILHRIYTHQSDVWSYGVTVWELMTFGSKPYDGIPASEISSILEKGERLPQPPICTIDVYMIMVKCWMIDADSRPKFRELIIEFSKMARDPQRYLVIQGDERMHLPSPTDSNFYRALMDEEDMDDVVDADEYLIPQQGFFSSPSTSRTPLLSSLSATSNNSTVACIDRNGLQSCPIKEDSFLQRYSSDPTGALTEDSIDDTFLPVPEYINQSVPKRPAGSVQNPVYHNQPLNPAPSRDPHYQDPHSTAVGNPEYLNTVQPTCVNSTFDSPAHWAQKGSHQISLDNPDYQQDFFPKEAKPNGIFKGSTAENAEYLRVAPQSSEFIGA

For the compound `Cc1ccc(C(=O)NS(=O)(=O)c2ccc(Cl)cc2)c(Cl)n1`, the results for the IC50 in assay [1] and in assay [2] were 1.19 µM and 1.35 µM, respectively.

In the case of `Cc1ccc(S(=O)(=O)NC(=O)c2cccnc2Cl)cc1`, the IC50 in assay [1] was 27 µM; in assay [2] it was 12.5 µM.

`O=C(NS(=O)(=O)c1ccc(Cl)cc1)c1cccnc1`: the results for the IC50 in assay [1] and in assay [2] were 25.4 µM and 13 µM, respectively.

Take `Cc1ccc(S(=O)(=O)NC(=O)c2ccc(Cl)nc2)cc1`: the IC50 in assay [1] is more than 30 µM; in assay [2], 17.2 µM.

On to `O=C(NS(=O)(=O)c1ccc(Br)cc1)c1cccnc1Cl`, for which the IC50 in assay [1] came out at 15.7 µM; in assay [2], 11.4 µM.

As to `Cc1ccc(C(=O)NS(=O)(=O)c2ccccc2)c(Cl)n1`, the IC50 stood at 21.6 µM in assay [1] and 13.4 µM in assay [2].

For `Cc1ccc(S(=O)(=O)NC(=O)c2cccnc2)cc1`, the IC50 turned out to be 24.8 µM in assay [1] and 12 µM in assay [2].

Regarding `O=C(NS(=O)(=O)c1ccccc1)c1cccnc1Cl`, the IC50 in assay [1] was more than 30 µM; in assay [2], 14 µM.

For the compound `O=C(NS(=O)(=O)c1ccccc1)c1cccnc1`, the IC50 is more than 30 µM in assay [1] and 14.4 µM in assay [2].

On to `O=C(NS(=O)(=O)c1ccc(F)cc1)c1cccnc1Cl`, for which the IC50 in assay [1] amounted to 28.7 µM; in assay [2], 12.5 µM.

`O=C(NS(=O)(=O)c1ccc(Cl)cc1)c1cncc(Br)c1`: the inhibition entry in assay [3] is “Active”. In addition, the IC50 in assay [1] is 0.09 µM; in assay [2] it was 0.07 µM.

Regarding `Cc1ccc(C(=O)NS(=O)(=O)c2ccc(Br)cc2)c(Cl)n1`, the IC50 was found to be 2.64 µM in assay [1] and 1.97 µM in assay [2].

With `O=C(NS(=O)(=O)c1ccc(Cl)cc1)c1cccnc1Cl`, the IC50 in assay [1] was 19.8 µM; in assay [2], 10.2 µM.

For the compound `O=C(NS(=O)(=O)c1ccc(F)cc1)c1cncc(Br)c1`, the IC50 in assay [1] was 3.27 µM; in assay [2] it was 0.98 µM.

Regarding `O=C(NS(=O)(=O)c1ccccc1)c1ccc(Cl)nc1`, the figures for the IC50 in assay [1] and in assay [2] were more than 30 µM and 14.1 µM, respectively.

Consider `Cc1ccc(S(=O)(=O)NC(=O)c2ccc(C)nc2Cl)cc1`, for which the IC50 in assay [1] is 15 µM; in assay [2], 8.52 µM.

For `Cc1ccc(S(=O)(=O)NC(=O)c2cncc(Br)c2)cc1`, the figures for the IC50 in assay [1] and in assay [2] were 12.1 µM and 9.37 µM, respectively.

For `O=C(NS(=O)(=O)c1ccc(Br)cc1)c1ccc(Cl)nc1`, the results for the concentration for half-maximal inhibition (IC50) in assay [1] and in assay [2] were 29.1 µM and 9.05 µM, respectively.

As to `O=C(NS(=O)(=O)c1ccc(Br)cc1)c1cncc(Br)c1`, the IC50 in assay [1] is 2.08 µM; in assay [2], 0.34 µM.

In the case of `O=C(NS(=O)(=O)c1ccc(F)cc1)c1ccc(Cl)nc1`, the IC50 is more than 30 µM in assay [1] and 16.8 µM in assay [2].

For the compound `O=C(NS(=O)(=O)c1ccc(Br)cc1)c1cccnc1`, the IC50 in assay [1] was more than 30 µM; in assay [2], 14.7 µM.

As for `O=C(NS(=O)(=O)c1ccc(F)cc1)c1cccnc1`, the figures for the IC50 in assay [1] and in assay [2] were more than 30 µM and 16 µM, respectively.

With `O=C(NS(=O)(=O)c1ccc(Cl)cc1)c1ccc(Cl)nc1`, the figures for the half-maximal inhibitory concentration (IC50) in assay [1] and in assay [2] were 18.1 µM and 8.07 µM, respectively.
